Reference: US20220127247A1, “N-(PYRIDIN-2-YL)PYRIDINE-SULFONAMIDE DERIVATIVES AND THEIR USE IN THE TREATMENT OF DISEASE” (NOVARTIS AG, priority 2019, published 2022)

Biological target: T1, delF508-CFTR (Homo sapiens, UniProt P13569, DEL508-508)
T1 construct: expressed in transfected cells
Assay: Measurement of delF508-CFTR-HRP surface expression in CFBE41o- cells
Format: cell-based
Conditions: for EC50: HRP-tagged delF508-CFTR in CFBE41o- cells, 24 h with compound, luminescence, 10-point curve, top 10 μM; for Emax: efficacy relative to reference compound 3-(6-(1-(2,2-difluorobenzo[d][1,3]dioxol-5-yl)cyclopropane-1-carboxamido)-3-methylpyridin-2-yl)benzoic acid, CFBE41o- cells, 24 h, read-out: DelF508-CFTR-HRP Amax %
Method in brief: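 CFBE41o- cells stably expressing delF508-CFTR with HRP in the fourth extracellular loop, induced with 500 ng/mL doxycycline for 48 h, then treated with compound (top 10 μM, 10-point 3-fold) for 24 h at 37° C. Surface HRP detected by luminescence with cell-impermeant substrate; EC50 from logistic fit of triplicates, normalized to lowest concentration.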

T1 sequence (P13569 with tags, fused parts or gaps DEL508-508): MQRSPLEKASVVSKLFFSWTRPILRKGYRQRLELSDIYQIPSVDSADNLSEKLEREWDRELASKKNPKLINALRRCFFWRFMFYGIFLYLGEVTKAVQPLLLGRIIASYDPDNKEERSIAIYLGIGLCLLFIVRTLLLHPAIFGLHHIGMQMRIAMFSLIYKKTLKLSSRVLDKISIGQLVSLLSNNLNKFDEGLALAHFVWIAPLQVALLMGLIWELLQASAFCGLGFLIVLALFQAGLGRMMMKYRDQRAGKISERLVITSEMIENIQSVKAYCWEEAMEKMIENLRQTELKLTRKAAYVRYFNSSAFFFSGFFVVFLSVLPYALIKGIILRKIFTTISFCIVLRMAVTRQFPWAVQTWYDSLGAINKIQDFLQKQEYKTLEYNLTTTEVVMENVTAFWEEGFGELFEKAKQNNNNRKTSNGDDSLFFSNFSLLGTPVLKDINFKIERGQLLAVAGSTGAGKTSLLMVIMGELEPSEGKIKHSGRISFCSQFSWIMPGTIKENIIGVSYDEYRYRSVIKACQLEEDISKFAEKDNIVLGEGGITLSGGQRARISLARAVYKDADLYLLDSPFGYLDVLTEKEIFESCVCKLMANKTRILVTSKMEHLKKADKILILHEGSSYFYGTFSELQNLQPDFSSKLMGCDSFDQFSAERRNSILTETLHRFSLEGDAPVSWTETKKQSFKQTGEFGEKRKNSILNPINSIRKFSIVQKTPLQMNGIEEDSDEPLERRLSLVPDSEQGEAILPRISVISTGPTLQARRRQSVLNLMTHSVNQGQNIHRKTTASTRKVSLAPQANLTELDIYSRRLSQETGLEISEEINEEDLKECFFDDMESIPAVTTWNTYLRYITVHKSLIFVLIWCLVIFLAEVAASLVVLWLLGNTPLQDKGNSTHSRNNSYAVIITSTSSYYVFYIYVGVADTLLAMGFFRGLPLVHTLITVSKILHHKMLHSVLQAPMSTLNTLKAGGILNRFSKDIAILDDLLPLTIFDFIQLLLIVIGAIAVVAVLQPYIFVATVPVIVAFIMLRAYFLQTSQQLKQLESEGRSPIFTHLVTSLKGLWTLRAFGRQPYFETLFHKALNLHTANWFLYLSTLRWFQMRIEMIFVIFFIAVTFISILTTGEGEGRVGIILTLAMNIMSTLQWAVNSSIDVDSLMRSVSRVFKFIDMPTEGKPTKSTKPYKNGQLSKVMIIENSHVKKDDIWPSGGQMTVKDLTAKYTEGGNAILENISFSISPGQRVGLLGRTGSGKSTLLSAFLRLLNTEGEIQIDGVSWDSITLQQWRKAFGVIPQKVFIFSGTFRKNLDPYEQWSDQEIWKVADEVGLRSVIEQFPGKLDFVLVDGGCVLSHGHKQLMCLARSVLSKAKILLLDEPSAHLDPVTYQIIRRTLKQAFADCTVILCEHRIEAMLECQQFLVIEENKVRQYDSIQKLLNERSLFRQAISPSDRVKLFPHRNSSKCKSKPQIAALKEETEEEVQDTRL

Structure (SMILES)	EC50 [nM]	Emax [%]
Cc1ccccc1-c1nc(NS(=O)(=O)c2cccc(N3CCCC(CCCC(=O)O)C3)n2)ccc1C(F)(F)F (stereo not drawn) [Compound 75, 4-(1-(6-(N-(6-(o-tolyl)-5-(trifluoromethyl)pyridin-2-yl)sulfamoyl)pyridin-2-yl)piperidin-3-yl)butanoic Acid]	2000	
C=Cc1ccccc1-c1nc(NS(=O)(=O)c2cccc(N3CCCC(CCCC(=O)O)C3)n2)ccc1C(F)(F)F (stereo not drawn) [Compound 76, 4-(1-(6-(N-(5-(trifluoromethyl)-6-(2-vinylphenyl)pyridin-2-yl)sulfamoyl)pyridin-2-yl)piperidin-3-yl)butanoic Acid]	1460	
C=Cc1ccccc1-c1nc(NS(=O)(=O)c2cccc(N3CCC[C@H](CC(=O)OCC)C3)n2)ccc1C(F)(F)F [Compound 77, ethyl (R)-2-(1-(6-(N-(5-(trifluoromethyl)-6-(2-vinylphenyl)pyridin-2-yl)sulfamoyl)pyridin-2-yl)piperidin-3-yl)acetate]	1450	945
C=Cc1ccccc1-c1nc(NS(=O)(=O)c2cccc(N3CCC[C@@H](CC(=O)OC)C3)n2)ccc1C(F)(F)F [Compound 78, methyl (S)-2-(1-(6-(N-(5-(trifluoromethyl)-6-(2-vinylphenyl)pyridin-2-yl)sulfamoyl)pyridin-2-yl)piperidin-3-yl)acetate]	1410	
Cc1ccccc1-c1nc(NS(=O)(=O)c2cccc(N3CCC(CCC(=O)O)CC3)n2)ccc1C(F)(F)F [Compound 79, 3-(1-(6-(N-(6-(o-tolyl)-5-(trifluoromethyl)pyridin-2-yl)sulfamoyl)pyridin-2-yl)piperidin-4-yl)propanoic Acid]	2910	330
Cc1ccccc1-c1nc(NS(=O)(=O)c2cccc(N3CCCC(CC(=O)O)C3)n2)ccc1C(F)(F)F (stereo not drawn) [Compound 88, 2-(1-(6-(N-(6-(o-tolyl)-5-(trifluoromethyl)pyridin-2-yl)sulfamoyl)pyridin-2-yl)piperidin-3-yl)acetic Acid]	2040	
Cc1ccccc1-c1nc(NS(=O)(=O)c2cccc(N3CCCCC3CCC(=O)O)n2)ccc1C(F)(F)F (stereo not drawn) [Compound 98, 3-(1-(6-(N-(6-(o-tolyl)-5-(trifluoromethyl)pyridin-2-yl)sulfamoyl)pyridin-2-yl)piperidin-2-yl)propanoic Acid]	1540	
Cc1ccccc1-c1nc(NS(=O)(=O)c2cccc(N(CCCCC(=O)O)C(C)C)n2)ccc1C(F)(F)F [Compound 101, 5-(isopropyl(6-(N-(6-(o-tolyl)-5-(trifluoromethyl)pyridin-2-yl)sulfamoyl)pyridin-2-yl)amino)pentanoic Acid]	1590	
CCCCN(CCCC(=O)O)c1cccc(S(=O)(=O)Nc2ccc(Cl)c(-c3cccnc3C(C)C)n2)n1 [Compound 112, 4-(butyl(6-(N-(3-chloro-2′-isopropyl-[2,3′-bipyridin]-6-yl)sulfamoyl)pyridin-2-yl)amino)butanoic Acid]	1570	
Cc1ccccc1-c1nc(NS(=O)(=O)c2cccc(SCCC(=O)O)n2)ccc1C(F)(F)F [Compound 117, 3-((6-(N-(6-(o-tolyl)-5-(trifluoromethyl)pyridin-2-yl)sulfamoyl)pyridin-2-yl)thio)propanoic Acid]	2430	196
Cc1ccccc1-c1nc(NS(=O)(=O)c2cccc(OCCC(=O)O)n2)ccc1C(F)(F)F [Compound 121, 3-((6-(N-(6-(o-tolyl)-5-(trifluoromethyl)pyridin-2-yl)sulfamoyl)pyridin-2-yl)nxy)propanoic Acid]	3280	167
Cc1cccc(C)c1-c1nc(NS(=O)(=O)c2cccc(N3CCC[C@H]3c3nnn[nH]3)n2)ccc1Cl [Compound 124, (S)-6-(2-(1H-tetrazol-5-yl)pyrrolidin-1-yl)-N-(5-chloro-6-(2,6-dimethylphenyl)pyridin-2-yl)pyridine-2-sulfonamide]	1730	297
Cc1ccccc1-c1nc(NS(=O)(=O)c2cccc(N(C)CC3(C(=O)O)CCCC3)n2)ccc1C(F)(F)F [Compound 130, 1-((methyl(6-(N-(6-(o-tolyl)-5-(trifluoromethyl)pyridin-2-yl)sulfamoyl)pyridin-2-yl)amino)methyl)cyclopentane-1-carboxylic Acid]	2060	403
CCC(NC(=O)C1CCC(Nc2cccc(S(=O)(=O)Nc3ccc(Cl)c(-c4ccccc4C)n3)n2)CC1)C(=O)O (stereo not drawn) [Compound 136, 2-(4-((6-(N-(5-chloro-6-(o-tolyl)pyridin-2-yl)sulfamoyl)pyridin-2-yl)amino)cyclohexane-1-carboxamido)butanoic Acid]	2310	952
Cc1ccccc1-c1nc(NS(=O)(=O)c2cccc(N(C)CC3(C(=O)O)CCC3)n2)ccc1C(F)(F)F [Compound 137, 1-((methyl(6-(N-(6-(o-tolyl)-5-(trifluoromethyl)pyridin-2-yl)sulfamoyl)pyridin-2-yl)amino)methyl)cyclobutane-1-carboxylic Acid]	2030	

The next lines start with the values.

EC50 [nM]	Emax [%]	Structure (SMILES)
1040		CCc1ccccc1-c1nc(NS(=O)(=O)c2cccc(N3CCCC(CCC(=O)O)C3)n2)ccc1C(F)(F)F (stereo not drawn) [Compound 82, 3-(1-(6-(N-(6-(2-ethylphenyl)-5-(trifluoromethyl)pyridin-2-yl)sulfamoyl)pyridin-2-yl)piperidin-3-yl)propanoic Acid]
1450		CCc1ccccc1-c1nc(NS(=O)(=O)c2cccc(N3CCCC(CCCC(=O)O)C3)n2)ccc1C(F)(F)F (stereo not drawn) [Compound 83, 4-(1-(6-(N-(6-(2-ethylphenyl)-5-(trifluoromethyl)pyridin-2-yl)sulfamoyl)pyridin-2-yl)piperidin-3-yl)butanoic Acid]
1540		CCc1ccccc1-c1nc(NS(=O)(=O)c2cccc(N3CCC[C@H](CC(=O)O)C3)n2)ccc1C(F)(F)F [Compound 84, (R)-2-(1-(6-(N-(6-(2-ethylphenyl)-5-(trifluoromethyl)pyridin-2-yl)sulfamoyl)pyridin-2-yl)piperidin-3-yl)acetic Acid]
970		CCN(CCCC(=O)O)c1cccc(S(=O)(=O)Nc2ccc(C(F)(F)F)c(-c3ccccc3C(C)C)n2)n1 [Compound 89, 4-(ethyl(6-(N-(6-(2-isopropylphenyl)-5-(trifluoromethyl)pyridin-2-yl)sulfamoyl)pyridin-2-yl)amino)butanoic Acid]
1670		Cc1ccccc1-c1nc(NS(=O)(=O)c2cccc(N(CCC(=O)O)C(C)C)n2)ccc1C(F)(F)F [Compound 91, 3-(isopropyl(6-(N-(6-(o-tolyl)-5-(trifluoromethyl)pyridin-2-yl)sulfamoyl)pyridin-2-yl)amino)propanoic Acid]
1330		CCc1ccc(F)cc1-c1nc(NS(=O)(=O)c2cccc(N(CCCCC(=O)O)C(C)C)n2)ccc1C(F)(F)F [Compound 99, 5-((6-(N-(6-(2-ethyl-5-fluorophenyl)-5-(trifluoromethyl)pyridin-2-yl)sulfamoyl)pyridin-2-yl)(isopropyl)amino)pentanoic Acid]
2490		Cc1ccc(F)cc1-c1nc(NS(=O)(=O)c2cccc(N(CCCCC(=O)O)C(C)C)n2)ccc1C(F)(F)F [Compound 100, 5-((6-(N-(6-(5-fluoro-2-methylphenyl)-5-(trifluoromethyl)pyridin-2-yl)sulfamoyl)pyridin-2-yl)(isopropyl)amino)pentanoic Acid]
1280		Cc1ccc(F)cc1-c1nc(NS(=O)(=O)c2cccc(N(CCCC(=O)O)CC3CC3)n2)ccc1C(F)(F)F [Compound 104, 4-((cyclopropylmethyl)(6-(N-(6-(5-fluoro-2-methylphenyl)-5-(trifluoromethyl)pyridin-2-yl)sulfamoyl)pyridin-2-yl)amino)butanoic Acid]
1780		CCN(CCC(=O)O)c1cccc(S(=O)(=O)Nc2ccc(C(F)(F)F)c(-c3cc(F)ccc3C3CC3)n2)n1 [Compound 111, 3-((6-(N-(6-(2-cyclopropyl-5-fluorophenyl)-5-(trifluoromethyl)pyridin-2-yl)sulfamoyl)pyridin-2-yl)(ethyl)amino)propanoic Acid]
1770	715	CCc1ccc(F)cc1-c1nc(NS(=O)(=O)c2cccc(N(CCC(=O)O)C3CC3)n2)ccc1C(F)(F)F [Compound 113, 3-(cyclopropyl(6-(N-(6-(2-ethyl-5-fluorophenyl)-5-(trifluoromethyl)pyridin-2-yl)sulfamoyl)pyridin-2-yl)amino)propanoic Acid]
1210		CCc1ccc(F)cc1-c1nc(NS(=O)(=O)c2cccc(N(CCC(=O)O)CC3CC3)n2)ccc1C(F)(F)F [Compound 116, 3-((cyclopropylmethyl)(6-(N-(6-(2-ethyl-5-fluorophenyl)-5-(trifluoromethyl)pyridin-2-yl)sulfamoyl)pyridin-2-yl)amino)propanoic Acid]
1410		CCc1ccc(F)cc1-c1nc(NS(=O)(=O)c2cccc(N(CCC(=O)O)C(C)C)n2)ccc1C(F)(F)F [Compound 119, 3-((6-(N-(6-(2-ethyl-5-fluorophenyl)-5-(trifluoromethyl)pyridin-2-yl)sulfamoyl)pyridin-2-yl)(isopropyl)amino)propanoic Acid]
1390	330	CCc1ccccc1-c1nc(NS(=O)(=O)c2cccc(OC3CCC(C(=O)O)CC3)n2)ccc1C(F)(F)F (stereo not drawn) [Compound 120, 4-((6-(N-(6-(2-ethylphenyl)-5-(trifluoromethyl)pyridin-2-yl)sulfamoyl)pyridin-2-yl)nxy)cyclohexane-1-carboxylic Acid]
1980	463	Cc1ccc(F)cc1-c1nc(NS(=O)(=O)c2cccc(N(C)CC3(C(=O)O)CCOCC3)n2)ccc1C(F)(F)F [Compound 138, 4-(((6-(N-(6-(5-fluoro-2-methylphenyl)-5-(trifluoromethyl)pyridin-2-yl)sulfamoyl)pyridin-2-yl)(methyl)amino)methyl)tetrahydro-2H-pyran-4-carboxylic Acid]
